# Molecular target: Protein cereblon (Homo sapiens, UniProt Q96SW2)
# Experiment: Fluorescence Binding Assay: Fluorescence quenching end point measurements were performed in black polystyrene 384-plates on Tecan Safire monochromator reader with the following settings: excitation 280 nm; excitation bandwidth 10.0 nm; emission collection 340 nm; emission bandwidth 20.0 nm; high sensitivity flash mode; integration time 40 μS; delay 0 […]. All measurements were done in duplicates; GraphPad Prism 5.03 was used for data evaluation, curve fitting, plotting and determination of IC50 values.Serial dilutions of each tested ligands were mixed with truncated CRBN (319-427) to a final volume of 25 μL in the assay buffer (20 mM sodium phosphate buffer, pH 6.5, with 150 mM sodium chloride). The final concentration of CRBN in all assay will be 5-10 μM with DMSO level at 4%. A control lanes were prepared with only tested ligands without the addition of CRBN, top up with assay buffer to 25 μL. Plates were incubated for 5 minutes and analyzed using the monochromator plate reader.
# Sequence of Protein cereblon (Q96SW2 whole entry, the tested form may be a part): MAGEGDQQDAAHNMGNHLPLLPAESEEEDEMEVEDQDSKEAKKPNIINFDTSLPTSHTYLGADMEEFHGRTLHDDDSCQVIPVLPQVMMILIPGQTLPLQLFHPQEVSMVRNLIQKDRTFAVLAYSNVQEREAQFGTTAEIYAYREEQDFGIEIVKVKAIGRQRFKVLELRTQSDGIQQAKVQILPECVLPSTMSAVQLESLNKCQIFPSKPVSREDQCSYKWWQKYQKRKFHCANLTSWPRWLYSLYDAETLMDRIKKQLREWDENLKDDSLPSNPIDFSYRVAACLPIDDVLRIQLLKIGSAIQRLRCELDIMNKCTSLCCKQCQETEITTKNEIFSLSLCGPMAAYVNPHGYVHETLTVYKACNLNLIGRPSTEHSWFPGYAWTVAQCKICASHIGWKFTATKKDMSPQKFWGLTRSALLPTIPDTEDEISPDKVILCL
smiles,measurement,value
Nc1ccc(-c2ccc3c(c2)CC(=O)N3)cn1,IC50,> 300 µM
